Experimental data as given in PMC9611449, “Hydroxy-3-Phenylcoumarins as Multitarget Compounds for Skin Aging Diseases: Synthesis, Molecular Docking and Tyrosinase, Elastase, Collagenase and Hyaluronidase Inhibition, and Sun Protection Factor” (Molecules, 2022).
“And” between values parts separate entries of the source, which are not always exact repeats. Equal entries are not always repeated. “Also recorded” adds a separate entry of the source. Where two headings read alike, the source gives them in different places.

Key:
tyrosinase = conditions: cited from earlier work
[1] = In vitro determination of the sun protection factor (UV absorbance, Mansur equation); assay type: physicochemical; conditions: compounds 0.1 mg/mL, absorbance 290–320 nm
Description: The sun protection factor of coumarins’ derivatives was measured by the UV absorbance method, as previously reported. The absorbances of the compounds (0.1 mg/mL) were registered in the range of 290–320 nm, with 5 nm increments, and three measurements were performed at each point. The SPF was determined by using the Mansur Equation [23]: SPF=CF × Σ290320 × EE(λ) × I(λ) × Abs(λ) where CF = correction factor (10); EE (λ) = erythemogenic effect of radiation with wavelength λ; I(λ) = solar intensity spectrum; Abs(λ) = spectrophotometric absorbance values at wavelength λ. The values of EE (λ) × I(λ) are constant as determined by Sayre et al. (Table 5).

[2] = test system: Collagenase from Clostridium histolyticum; test: Collagenase inhibition assay (FALGPA substrate); assay type: biochemical; conditions: for Enzyme inhibition Collagenase: 100 μM; for IC50: mean ± SD of three independent experiments
Description: Results from all the inhibition tests described below were reported as a percentage of the blank control. Since the compounds were dissolved in DMSO, in the assays carried out without compounds, DMSO was added to the reaction mixture as blank control. […] Data from activity experiments were recorded using an Ultrospec 2100 spectrophotometer (Biochrom Ltd., Cambridge, UK).
Collagenase from Clostridium histolyticum (1 U/mL) was prepared in 0.05 M Tricine buffer (pH 7.5), with 0.4 M NaCl and 0.01 M CaCl2, and incubated with different concentrations of test samples for 15 minutes. After adding the N-(3-[2-Furyl]-acryloyl)-Leu-Gly-Pro-Ala (FALGPA) substrate, prepared in the same buffer solution reaching a final concentration of 0.8 mM, the absorbance was registered at 340 nm. Epigallocatechin gallate was used as a positive control.

mushroom tyrosinase = test: Tyrosinase inhibition assay (L-DOPA substrate); assay type: biochemical; conditions: for Enzyme inhibition Tyrosinase: 50 μM; for IC50: mean ± SD of three independent experiments
Description: (§1) Since the compounds were dissolved in DMSO, in the assays carried out without compounds, DMSO was added to the reaction mixture as blank control. […] Data from activity experiments were recorded using an Ultrospec 2100 spectrophotometer (Biochrom Ltd., Cambridge, UK).
The inhibition of tyrosinase was monitored by using DOPA as substrate. The reaction solution contained phosphate buffer (25 mM, pH 6.8) and mushroom tyrosinase (100 U/mL), with or without test samples.

[3] = target: porcine pancreatic elastase (Sus scrofa, UniProt P00772); test: Elastase inhibition assay (SANA substrate); assay type: biochemical; conditions: for inhibition at 50 µM: read-out: Enzyme inhibition Elastase; for IC50: mean ± SD of three independent experiments; for inhibition at 50 µM / Enzyme inhibition Elastase: 50 μM
Description: as §1
The inhibition of elastase was determined by measuring the production of p-nitroaniline during the reaction of the enzyme with the N-succ-(Ala)3-nitroanilide (SANA) substrate. The assay was carried out in Tris-HCl buffer (0.1 M, pH 8.0) containing porcine pancreatic elastase (3.3 µg/mL). The reaction mixture was incubated in the presence or in the absence of the test compounds for 20 minutes and, once the substrate (1.6 mM) was added, the enzyme activity was monitored at 410 nm.

[4] = test system: Human skin keratinocyte cell line (HaCaT); test: HaCaT cell viability (MTT assay); assay type: cell-based; conditions: 10–200 μM, 24 h
Description: Human skin keratinocyte cell line (HaCaT; CLS–Cell Lines Service, Eppelheim, Germany) was cultured in Dulbecco’s Modified Eagle’s Medium (DMEM) with 10% fetal bovine serum (FBS; Gibco, NY, USA) and 1% penicillin/streptomycin at 37 °C in a humidified atmosphere with 5% CO2. Cell viability was determined by the MTT (3-(4,5-dimethylthiazol-2-yl)-2,5-diphenyltetrazolium bromide) colorimetric assay, as previously reported. Briefly, HaCaT cells were seeded in 96-well plates and incubated with compounds at different concentrations (0–200 µM). After 24 h, cells were labelled with MTT solution for 3 h at 37 °C. DMSO was added to the formed violet formazan precipitates and the absorbance of each well was measured at 560 nm.

[5] = already described by our research group

Sequence of porcine pancreatic elastase (P00772 27-266): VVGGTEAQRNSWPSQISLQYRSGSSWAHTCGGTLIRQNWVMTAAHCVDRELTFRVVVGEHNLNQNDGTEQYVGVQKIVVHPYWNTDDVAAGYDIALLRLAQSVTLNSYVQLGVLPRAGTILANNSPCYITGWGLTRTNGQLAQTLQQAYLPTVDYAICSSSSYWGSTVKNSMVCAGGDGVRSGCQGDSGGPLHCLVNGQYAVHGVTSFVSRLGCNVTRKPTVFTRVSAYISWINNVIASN

Row | Compound | IC50 (tyrosinase; [5]) | SPF [1] | Enzyme inhibition Collagenase [2] | IC50 [2] | times more active than the reference compound epigallocatechin gallate (collagenase) ([2]; ratio of IC50 values) | Enzyme inhibition Tyrosinase (mushroom tyrosinase) | IC50 (mushroom tyrosinase) | inhibition at 50 µM [3] | IC50 [3] | Enzyme inhibition Elastase [3] | Cytotoxicity on HaCaT cell viability [4] | times more active than the standard inhibitor kojic acid (tyrosinase) (mushroom tyrosinase; ratio of IC50 values) | IC50 (tyrosinase)
1 | O=c1oc2c(O)cc(O)cc2cc1-c1cc(O)c(O)c(O)c1 [6,8-Dihydroxy-3-(3',4',5'-trihydroxyphenyl)coumarin] | 270 µM |  |  |  |  |  |  |  |  |  |  |  | 
2 | O=c1oc2ccc3ccccc3c2cc1-c1ccc(O)cc1 [Compound 13, 3-(4′-Hydroxyphenyl)benzo[f]coumarin] |  | 6.40 ± 1.53 | 51.5% | 96.8 ± 5.9 µM | 1.25 times | 23.2% | > 50 µM | 20.7% | > 50 µM |  |  |  | 
3 | O=c1oc2cc(O)cc(O)c2cc1-c1ccccc1Br [Compound 3, 3-(2′-Bromophenyl)-5,7-dihydroxycoumarin] |  | 5.89 ± 0.21 | 37.1% | 125 ± 10.2 µM |  | 29.3% | > 50 µM |  | > 50 µM | N.I |  |  | 
4 | O=c1oc2c(O)cc(Br)cc2cc1-c1ccc(O)cc1 [6-Bromo-8-hydroxy-3-(4'-hydroxyphenyl)coumarin] | 215 µM |  |  |  |  |  |  |  |  |  |  |  | 
5 | O=C(O[C@@H]1Cc2c(O)cc(O)cc2O[C@@H]1c1cc(O)c(O)c(O)c1)c1cc(O)c(O)c(O)c1 [Epigallocatechin gallate, reference compound] |  |  |  | 121 ± 6.2 µM |  |  |  |  |  |  |  |  | 
6 | O=c1ccc2cc(O)c(O)cc2o1 [Esculetin] | 43 µM |  |  |  |  |  |  |  |  |  |  |  | 
7 | O=c1oc2c(O)c(O)ccc2cc1-c1ccccc1Br [Compound 9, 3-(2′-Bromophenyl)-7,8-dihydroxycoumarin] |  | 4.27 ± 0.91 | 14.7% | > 150 µM |  | 15.7% | > 50 µM |  | > 50 µM | N.I |  |  | 
8 | O=c1oc2ccc3ccccc3c2cc1-c1cc(O)cc(O)c1 [Compound 17, 3-(3′,5′-Dihydroxyphenyl)benzo[f]coumarin] |  | 4.34 ± 0.66 | 15.6% | > 150 µM |  | 10.0% | > 50 µM | 22.4% | > 50 µM |  |  |  | 
9 | O=c1oc2ccc3ccccc3c2cc1-c1ccccc1O [Compound 15, 3-(2′-Hydroxyphenyl)benzo[f]coumarin] |  | 6.89 ± 3.28 | N.I. | > 150 µM |  | N.I | > 50 µM |  | > 50 µM | N.I |  |  | 
10 | O=c1oc2ccc3ccccc3c2cc1-c1cccc(O)c1 [Compound 14, 3-(3′-Hydroxyphenyl)benzo[f]coumarin] |  | 5.08 ± 0.46 | 21.2% | > 150 µM |  | 22.3% | > 50 µM | 35.3% | > 50 µM |  |  |  | 
11 | O=c1oc2cc(O)cc(O)c2cc1-c1cccc(Br)c1 [Compound 2, 3-(3′-Bromophenyl)-5,7-dihydroxycoumarin] |  | 4.52 ± 0.22 | 44.3% | 110 ± 2.8 µM |  | 79.2% | 7.03 µM and 7 µM | 20.3% | > 50 µM |  | non-cytotoxic; also recorded: no toxicity | 2.6 times | 
12 | O=c1oc2c(O)c(O)ccc2cc1-c1cccc(Br)c1 [Compound 8, 3-(3′-Bromophenyl)-7,8-dihydroxycoumarin] |  | 6.94 ± 2.57 | 39.9% | 122 ± 4.8 µM |  | 33.6% | > 50 µM | 2.2% | > 50 µM |  |  |  | 
13 | O=c1oc2c(O)c(O)ccc2cc1-c1ccc(Br)cc1 [Compound 7, 3-(4′-Bromophenyl)-7,8-dihydroxycoumarin] |  | 5.88 ± 1.35 | N.I. | > 150 µM |  | 9.6% | > 50 µM | 15.6% | > 50 µM |  |  |  | 
14 | O=c1oc2ccc3ccccc3c2cc1-c1ccc(O)c(O)c1 [Compound 16, 3-(3′,4′-Dihydroxyphenyl)benzo[f]coumarin] |  | 5.09 ± 1.35 | 7.9% | > 150 µM |  | N.I | > 50 µM | 22.8% | > 50 µM |  |  |  | 
15 | O=c1oc2cc(O)ccc2cc1-c1cccc(Br)c1 [Compound 10, 3-(3′-Bromophenyl)-7-hydroxycoumarin] |  | 6.70 ± 1.30 | 13.2% | > 150 µM |  | 56.9% | 42 ± 1.1 µM | 38.9% | > 50 µM |  |  |  | 
16 | O=c1oc2cc(O)c(O)cc2cc1-c1cccc(Br)c1 [Compound 5, 3-(3′-Bromophenyl)-6,7-dihydroxycoumarin] |  |  | 18.2% | > 150 µM |  | 80.3% | 8.25 µM and 8.3 µM | 68.4% | 37.4 µM |  |  |  | 
17 | O=c1oc2cc(O)c(O)cc2cc1-c1cccc(O)c1 [Compound 11, 6,7-Dihydroxy-3-(3′-hydroxyphenyl)coumarin] |  | 5.44 and 5.44 ± 0.64 | 35.7% | 143 ± 7.1 µM |  | 8.6% | > 50 µM | 29.6% | > 50 µM |  |  |  | 
18 | O=c1oc2cc(O)c(O)cc2cc1-c1ccccc1O [Compound 12, 6,7-Dihydroxy-3-(2′-hydroxyphenyl)coumarin] |  | 5.64 and 5.64 ± 1.43 | 39.3% | 134 ± 6.6 µM |  | 22.7% | > 50 µM | 24.5% | > 50 µM |  |  |  | 
19 | Nc1cc2ccc(O)cc2oc1=O [3-Amino-7-hydroxycoumarin] |  |  |  |  |  |  |  |  |  |  |  |  | 50 µM
20 | O=c1oc2cc(O)c(O)cc2cc1-c1ccccc1Br [Compound 6, 3-(2′-Bromophenyl)-6,7-dihydroxycoumarin] |  | 8.08 and 8.08 ± 0.01 | 38.1% | 140 ± 8 µM |  | 25.8% | > 50 µM | 23.8% | > 50 µM |  |  |  | 
